Test results reported in US11267861B2, “Peptide-oligourea foldamer compounds and methods of their use” (UREKA SARL, priority 2016, dated 2022).
In brackets after ≈: the same amount, converted by molar mass. Numbered stars: 1 amine (or outer) side, 2 acyl side, 3 side chain; on linkers, the order of the positions; unused ones are H or OH. Bridge positions count the residues as written; N and C are the ends. Square brackets hold non-standard residues; d marks the D form. Peptide text beside a SMILES is read from it. I, II: the chains in the order shown. X4 = NCCCC[C@@H](CNC(=O)[*:1])N[*:2]; Nle = CCCC[C@H](N)C(=O)O

Legend:
human glucagon receptor = target: T1, human glucagon receptor (Homo sapiens, UniProt P47871); experiment: Glucagon functional assay: agonist activity by cAMP production (HTRF) in transfected CHO cells; format: cell-based; conditions: cAMP production, transfected CHO cells, 10 minutes at 37° C.
T1 construct: expressed in transfected cells; host or cells: CHO cells
Method: Functional Assay to Examine Bioactivity of Glucagon Receptor Agonists. Evaluation of the agonist activity of compounds at the human glucagon receptor expressed in transfected CHO cells was examined by measuring their effects on cAMP production using the HTRF detection method. […] For stimulated control measurement, separate assay wells contain 100 nM glucagon were utilized.
Following incubation, the cells were lysed and the fluorescence acceptor (D2-labeled cAMP) and fluorescence donor (anti-cAMP antibody labeled with europium cryptate) were added. […] The results are expressed as a percent of the control response to 100 nM glucagon. The standard reference agonist is glucagon, which was tested in each experiment at several concentrations to generate a concentration-response curve from which its EC50 value was calculated.
HTRF (Homogeneous Time-Resolved Fluorescence) principle. The HTRF technology is based on time resolved fluorescence energy transfer (TR-FRET), which occurs between long-lived fluorophore Europium or Terbium Cryptates, and EuK or Tb respectively, as a donor and the allophycocyanin XL665, d2 or Red as acceptor. Many compounds and proteins present in biological fluids or serum are naturally fluorescent, and the use of conventional, prompt fluorescence leads to serious limitations in assay sensitivity. The use of long-lived fluorophore combined with time-resolved detection (a delay between excitation and emission detection) minimizes prompt fluorescence interference.

[1] = Solubility of glucagon analogs (UV absorbance); format: physicochemical; conditions: for solubility: 0.01M HCl solution adjusted to pH 7 with Na2HPO4, pH 7, pH adjusted to 7 with Na2HPO4, incubated overnight at 4° C.; for ratio (solubility relative to reference compound 16): relative to compound 16;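 as to all read-outs here: peptide stock at 3 mg/ml in 0.01 M HCl, absorbance at 280 nm read before neutralization and again on the diluted supernatant after centrifugation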
Method: A solution of 3 mg/ml of glucagon (or analog) was prepared in a 0.01M HCl solution. Then 0.1 ml of the stock solution was diluted to 1 ml with HCl (0.01M) and the UV absorbance measured (to 280 nm) with nanodrop UV spectrometer. The pH of the remaining stock solution was adjusted to 7 using Na2HPO4, and the solution was incubated overnight at 4° C. The solution was then centrifuged three times (5 minutes, 4000 rotations per minute), 0.1 ml of the supernatant was removed and diluted to 1 ml with HCl solution (0.01M).
The final UV absorbance was measured.

T1 sequence (P47871 26-477): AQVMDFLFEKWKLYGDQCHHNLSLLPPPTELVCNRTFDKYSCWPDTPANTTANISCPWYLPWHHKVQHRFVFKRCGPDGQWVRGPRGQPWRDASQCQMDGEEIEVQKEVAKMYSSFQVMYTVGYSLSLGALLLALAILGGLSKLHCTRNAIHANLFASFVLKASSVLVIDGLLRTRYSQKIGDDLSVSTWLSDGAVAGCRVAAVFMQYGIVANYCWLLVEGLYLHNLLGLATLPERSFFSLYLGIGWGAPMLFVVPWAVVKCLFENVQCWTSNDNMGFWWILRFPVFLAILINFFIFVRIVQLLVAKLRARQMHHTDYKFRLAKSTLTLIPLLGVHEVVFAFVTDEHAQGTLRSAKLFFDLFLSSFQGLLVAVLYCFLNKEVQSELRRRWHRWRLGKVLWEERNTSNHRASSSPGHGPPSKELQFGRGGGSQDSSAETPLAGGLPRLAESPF

SMILES: CCCC[C@H](NC(=O)[C@H](CC(C)C)NC(=O)NC[C@H](C)NC(=O)[C@H](CCC(N)=O)NC(=O)[C@@H](NC(=O)[C@H](Cc1ccccc1)NC(=O)[C@H](CC(=O)O)NC(=O)[C@H](CCC(N)=O)NC(=O)[C@H](C)NC(=O)[C@H](CCCNC(=N)N)NC(=O)[C@H](CCCNC(=N)N)NC(=O)[C@H](CO)NC(=O)[C@H](CC(=O)O)NC(=O)[C@H](CC(C)C)NC(=O)[C@H](Cc1ccc(O)cc1)NC(=O)[C@H](CCCCN)NC(=O)[C@H](CO)NC(=O)[C@H](Cc1ccc(O)cc1)NC(=O)[C@H](CC(=O)O)NC(=O)[C@H](CO)NC(=O)[C@@H](NC(=O)[C@H](Cc1ccccc1)NC(=O)[C@@H](NC(=O)CNC(=O)[C@H](CCC(N)=O)NC(=O)[C@H](CO)NC(=O)[C@@H](N)Cc1c[nH]cn1)[C@@H](C)O)[C@@H](C)O)C(C)C)C(=O)N[C@@H](CC(N)=O)C(=O)N[C@H](C(=O)O)[C@@H](C)O [Compound 57]
- EC50 (human glucagon receptor): 22 nM
- solubility [1]: 970 µg/mL (≈ 287 µM)
- ratio (solubility relative to reference compound 16) [1]: 3.9

SMILES: CCCC[C@H](NC(=O)NC[C@H](C)NC(=O)[C@H](Cc1c[nH]c2ccccc12)NC(=O)[C@H](CCC(N)=O)NC(=O)[C@@H](NC(=O)[C@H](Cc1ccccc1)NC(=O)[C@H](CC(=O)O)NC(=O)[C@H](CCC(N)=O)NC(=O)[C@H](C)NC(=O)[C@H](CCCNC(=N)N)NC(=O)[C@H](CCCNC(=N)N)NC(=O)[C@H](CO)NC(=O)[C@H](CC(=O)O)NC(=O)[C@H](CC(C)C)NC(=O)[C@H](Cc1ccc(O)cc1)NC(=O)[C@H](CCCCN)NC(=O)[C@H](CO)NC(=O)[C@H](Cc1ccc(O)cc1)NC(=O)[C@H](CC(=O)O)NC(=O)[C@H](CO)NC(=O)[C@@H](NC(=O)[C@H](Cc1ccccc1)NC(=O)[C@@H](NC(=O)CNC(=O)[C@H](CCC(N)=O)NC(=O)[C@H](CO)NC(=O)[C@@H](N)Cc1c[nH]cn1)[C@@H](C)O)[C@@H](C)O)C(C)C)C(=O)N[C@@H](CC(N)=O)C(=O)N[C@H](C(=O)O)[C@@H](C)O [Compound 58]
- EC50 (human glucagon receptor): 35 nM
- solubility [1]: 1510 µg/mL (≈ 437 µM)
- ratio (solubility relative to reference compound 16) [1]: 6.0

SMILES: CCCC[C@H](NC(=O)[C@H](CC(C)C)NC(=O)[C@H](Cc1c[nH]c2ccccc12)NC(=O)[C@H](CCC(N)=O)NC(=O)[C@@H](NC(=O)[C@H](Cc1ccccc1)NC(=O)[C@H](CC(=O)O)NC(=O)[C@H](CCC(N)=O)NC(=O)[C@H](C)NC(=O)[C@H](CCCNC(=N)N)NC(=O)[C@H](CCCNC(=N)N)NC(=O)[C@H](CO)NC(=O)[C@H](CC(=O)O)NC(=O)[C@H](CC(C)C)NC(=O)[C@H](Cc1ccc(O)cc1)NC(=O)NC[C@H](CCCCN)NC(=O)[C@H](CO)NC(=O)[C@H](Cc1ccc(O)cc1)NC(=O)[C@H](CC(=O)O)NC(=O)[C@H](CO)NC(=O)[C@@H](NC(=O)[C@H](Cc1ccccc1)NC(=O)[C@@H](NC(=O)CNC(=O)[C@H](CCC(N)=O)NC(=O)[C@H](CO)NC(=O)[C@@H](N)Cc1c[nH]cn1)[C@@H](C)O)[C@@H](C)O)C(C)C)C(=O)N[C@@H](CC(N)=O)C(=O)N[C@H](C(=O)O)[C@@H](C)O [Compound 59] (I: YLDSRRAQDFVQWL[Nle]NT-OH / II: H-HSQGTFTSDYS; linker I:N-II:C via X4; C-terminus assumed)
- EC50 (human glucagon receptor): 32 nM
- solubility [1]: 720 µg/mL (≈ 206 µM)
- ratio (solubility relative to reference compound 16) [1]: 2.9

SMILES: CCCC[C@H](NC(=O)[C@H](CC(C)C)NC(=O)[C@H](Cc1c[nH]c2ccccc12)NC(=O)[C@H](CCC(N)=O)NC(=O)[C@@H](NC(=O)[C@H](Cc1ccccc1)NC(=O)[C@H](CC(=O)O)NC(=O)NC[C@H](CCC(N)=O)NC(=O)[C@H](C)NC(=O)[C@H](CCCNC(=N)N)NC(=O)[C@H](CCCNC(=N)N)NC(=O)[C@H](CO)NC(=O)[C@H](CC(=O)O)NC(=O)[C@H](CC(C)C)NC(=O)[C@H](Cc1ccc(O)cc1)NC(=O)[C@H](CCCCN)NC(=O)[C@H](CO)NC(=O)[C@H](Cc1ccc(O)cc1)NC(=O)[C@H](CC(=O)O)NC(=O)[C@H](CO)NC(=O)[C@@H](NC(=O)[C@H](Cc1ccccc1)NC(=O)[C@@H](NC(=O)CNC(=O)[C@H](CCC(N)=O)NC(=O)[C@H](CO)NC(=O)[C@@H](N)Cc1c[nH]cn1)[C@@H](C)O)[C@@H](C)O)C(C)C)C(=O)N[C@@H](CC(N)=O)C(=O)N[C@H](C(=O)O)[C@@H](C)O [Compound 60]
- EC50 (human glucagon receptor): 36 nM
- solubility [1]: 830 µg/mL (≈ 238 µM)
- ratio (solubility relative to reference compound 16) [1]: 3.3

SMILES: CCCC[C@H](NC(=O)[C@H](CC(C)C)NC(=O)[C@H](Cc1c[nH]c2ccccc12)NC(=O)[C@H](CCC(N)=O)NC(=O)[C@@H](NC(=O)[C@H](Cc1ccccc1)NC(=O)NC[C@H](CC(=O)O)NC(=O)[C@H](CCC(N)=O)NC(=O)[C@H](C)NC(=O)[C@H](CCCNC(=N)N)NC(=O)[C@H](CCCNC(=N)N)NC(=O)[C@H](CO)NC(=O)[C@H](CC(=O)O)NC(=O)[C@H](CC(C)C)NC(=O)[C@H](Cc1ccc(O)cc1)NC(=O)[C@H](CCCCN)NC(=O)[C@H](CO)NC(=O)[C@H](Cc1ccc(O)cc1)NC(=O)[C@H](CC(=O)O)NC(=O)[C@H](CO)NC(=O)[C@@H](NC(=O)[C@H](Cc1ccccc1)NC(=O)[C@@H](NC(=O)CNC(=O)[C@H](CCC(N)=O)NC(=O)[C@H](CO)NC(=O)[C@@H](N)Cc1c[nH]cn1)[C@@H](C)O)[C@@H](C)O)C(C)C)C(=O)N[C@@H](CC(N)=O)C(=O)N[C@H](C(=O)O)[C@@H](C)O [Compound 61]
- EC50 (human glucagon receptor): 0.1 nM
- solubility [1]: 740 µg/mL (≈ 212 µM)
- ratio (solubility relative to reference compound 16) [1]: 2.9

SMILES: CCCC[C@H](NC(=O)[C@H](CC(C)C)NC(=O)[C@H](Cc1c[nH]c2ccccc12)NC(=O)[C@H](CCC(N)=O)NC(=O)[C@@H](NC(=O)NC[C@H](Cc1ccccc1)NC(=O)[C@H](CC(=O)O)NC(=O)[C@H](CCC(N)=O)NC(=O)[C@H](C)NC(=O)[C@H](CCCNC(=N)N)NC(=O)[C@H](CCCNC(=N)N)NC(=O)[C@H](CO)NC(=O)[C@H](CC(=O)O)NC(=O)[C@H](CC(C)C)NC(=O)[C@H](Cc1ccc(O)cc1)NC(=O)[C@H](CCCCN)NC(=O)[C@H](CO)NC(=O)[C@H](Cc1ccc(O)cc1)NC(=O)[C@H](CC(=O)O)NC(=O)[C@H](CO)NC(=O)[C@@H](NC(=O)[C@H](Cc1ccccc1)NC(=O)[C@@H](NC(=O)CNC(=O)[C@H](CCC(N)=O)NC(=O)[C@H](CO)NC(=O)[C@@H](N)Cc1c[nH]cn1)[C@@H](C)O)[C@@H](C)O)C(C)C)C(=O)N[C@@H](CC(N)=O)C(=O)N[C@H](C(=O)O)[C@@H](C)O [Compound 62]
- EC50 (human glucagon receptor): 53 nM
- solubility [1]: 680 µg/mL (≈ 195 µM)
- ratio (solubility relative to reference compound 16) [1]: 2.7

SMILES: CCCC[C@H](NC(=O)[C@H](CC(C)C)NC(=O)[C@H](Cc1c[nH]c2ccccc12)NC(=O)[C@H](CCC(N)=O)NC(=O)NC[C@@H](NC(=O)[C@H](Cc1ccccc1)NC(=O)[C@H](CC(=O)O)NC(=O)[C@H](CCC(N)=O)NC(=O)[C@H](C)NC(=O)[C@H](CCCNC(=N)N)NC(=O)[C@H](CCCNC(=N)N)NC(=O)[C@H](CO)NC(=O)[C@H](CC(=O)O)NC(=O)[C@H](CC(C)C)NC(=O)[C@H](Cc1ccc(O)cc1)NC(=O)[C@H](CCCCN)NC(=O)[C@H](CO)NC(=O)[C@H](Cc1ccc(O)cc1)NC(=O)[C@H](CC(=O)O)NC(=O)[C@H](CO)NC(=O)[C@@H](NC(=O)[C@H](Cc1ccccc1)NC(=O)[C@@H](NC(=O)CNC(=O)[C@H](CCC(N)=O)NC(=O)[C@H](CO)NC(=O)[C@@H](N)Cc1c[nH]cn1)[C@@H](C)O)[C@@H](C)O)C(C)C)C(=O)N[C@@H](CC(N)=O)C(=O)N[C@H](C(=O)O)[C@@H](C)O [Compound 63]
- EC50 (human glucagon receptor): 30 nM
- solubility [1]: 1280 µg/mL (≈ 366 µM)
- ratio (solubility relative to reference compound 16) [1]: 5.1
